According to ChEMBL document CHEMBL1157539, “Thousands of chemical starting points for antimalarial lead identification” (Nature, 2010):

Tested on: Plasmodium falciparum
Assay: GSK_TCMDC: Inhibition of Plasmodium falciparum 3D7 in whole erythrocytes, using parasite LDH activity as an index of growth.
Type: functional, organism-based
Details: Plasmodium falciparum, 3D7

SMILES	XC50
CN(C)CCCOc1ccc(CN2CC[C@H](NC(=O)c3ccc(Cl)c(Cl)c3)C2)c2ccccc12	879 nM
CN1CCN(c2cc3c(cc2Cl)CCN3C(=O)Cc2ccc(NC(=O)Nc3cccc4ccccc34)cc2)CC1	973 nM
CCOC(=O)NC1=NC(C)(C)N(OCc2ccc(Cl)c(Cl)c2)C(NC(=O)OCC)=N1	278 nM
COc1cc(Cc2cnc(N)nc2N)cc(OC)c1OCCNC(=O)[C@@H](N)CCC(=O)O	843 nM
Brc1cc2c(cc1C=NNc1nc(=Nc3ccccc3)[nH]c(=Nc3ccccc3)[nH]1)OCO2	798 nM
c1ccc(Nc2nc(-c3ccccn3)cs2)nc1	1150 nM
CC(Cc1ccc(NC(=O)CCCc2ccccc2)cc1)NCCc1cccc(Cl)c1 (configuration not stated)	945 nM
COc1ccc2c(=NN=Cc3ccccc3F)cc(C)[nH]c2c1	997 nM
Cc1cccc2nc(-c3ccc(-c4ccc(CN5CCC(N)C5)cc4)s3)[nH]c12 (configuration not stated)	373 nM
CCCc1cc(Cc2cnc(N)nc2N)cc(CCC)c1OCCCCC(=O)OCC	54.1 nM
Fc1ccc2[nH]c(-c3ccc(-c4ccc(CN5CCC(CCN6CCCCC6)CC5)cc4)cc3)nc2c1	129 nM
CN(C)CCN(C)Cc1cccc(-c2cccc(NC(=O)c3cccc(C#N)c3)c2)c1	873 nM
CN1CCN(c2nsc3ccc(-c4ccc(NC(=O)Nc5cc(C(F)(F)F)ccc5F)cc4)cc23)CC1	245 nM
CN1CCCC(OC(=O)c2ccccc2)C1 (configuration not stated)	756 nM
COc1ccc2nccc([C@@H](O)CN3CCC(CO)(NCc4cc5ccccc5o4)CC3)c2c1	1370 nM
CN(c1ccc(NC(=O)c2ccc(F)cc2)cc1)C1CCN(Cc2cccc(F)c2)C1 (configuration not stated)	1410 nM
Cc1cccc(C(=O)N2CCN(Cc3cccc(NC(=O)c4ccco4)c3)CC2)c1	761 nM
Cc1nc(O)c2c(ccc3ccc(CNc4ccc(C(=O)N[C@@H](CCC(=O)O)C(=O)O)c(F)c4)cc32)n1	402 nM
CCN(CC)CCOc1ccc(N(Cc2ccc(C(C)(C)C)cc2)C(=O)c2ccc(Cc3ccccc3)cc2)cc1OC	773 nM
Cc1cc(Nc2ncc(Cl)c(Nc3ccccc3C(N)=O)n2)n[nH]1	811 nM
CC(C)c1ccc(OCC(O)CN(C)C(C)C(O)c2ccccc2)c(Br)c1 (configuration not stated)	815 nM
CN1CCC(C(=O)N(Cc2ccc(-c3ccc(CNCCc4ccccc4)cn3)cc2)Cc2cccc(F)c2)CC1	935 nM
O=C(c1cc(-c2ccccc2)n[nH]1)N1CCN(S(=O)(=O)c2ccc(Cl)s2)CC1	925 nM
O=C(Nc1ccsc1)Nc1cccc(-c2cccc(-c3nc4cc(F)ccc4[nH]3)c2)c1	199 nM
CC(C)C[C@H](NC(=O)c1cc2ccccc2s1)C(=O)N[C@H]1CCN(Cc2ccc(OC[C@@H]3CCCN3C)c3ccccc23)C1	1160 nM

SMILES	XC50
CC(=O)NCCNc1cc(N2CCc3ncnc(Nc4ccc(OCc5c(F)cccc5F)c(Cl)c4)c3C2)ncn1	160 nM
CCCCN1CCN(CCCCNc2c3ccccc3nc3ccccc23)CC1	167 nM
Cc1[nH]c2ccccc2c1C=NNc1nc(=Nc2ccccc2)[nH]c(=Nc2ccccc2)[nH]1	926 nM
Nc1cccc(CNCc2cccc(-c3ccc(-c4nc5cc(C(F)(F)F)ccc5[nH]4)cc3)c2)c1	360 nM
COc1cc(OC)cc(C(=O)Nc2cccc(-c3cn4ccc(C)cc4n3)c2)c1	994 nM
COc1ccccc1C1CCN(C2CCC(NC(=O)/C=C/c3cccc(C(F)(F)F)c3)CC2)CC1 (configuration not stated)	806 nM
CCOC(=O)c1cn(CC)c2cc(OCc3ccccc3)ccc2c1=O	947 nM
CC(C)CNCc1cccc(-c2ccccc2CN(C(=O)Nc2ccccc2)C2CCN(Cc3ccccc3)CC2)c1	642 nM
O=C(Nc1ccc(Cl)cc1)Nc1ccc(OCC(O)CN2CCCCC2)cc1 (configuration not stated)	1160 nM
OC(c1cccc(OCc2ccccc2)c1)C1CN(CCc2ccccc2)CCC1(O)c1ccccc1 (configuration not stated)	218 nM
CCn1ncc2c(NC3CCOCC3)c(CNC(=O)c3ccnn3C)c(C)nc21	533 nM
O=C(Nc1ccc(Cl)c(Cl)c1)N(Cc1ccccc1Br)C1CCNCC1	1030 nM
CC(CN(C)C)C(=O)Nc1ccc(-c2csc(-c3nc4ccccc4[nH]3)c2)cc1 (configuration not stated)	1320 nM
C=CCOC(=O)N1CCC(CNCc2cccc(-c3cccc(-c4nc5cc(F)ccc5[nH]4)c3)c2)C1 (configuration not stated)	207 nM
O=C(N[C@@H](CC1CCCCC1)C(=O)NCCN1CCCC1)c1ccc(O)c(-c2ccc(Cl)c(Cl)c2)c1	312 nM
CNCc1cccc(-c2ccc3ccnc(N)c3c2)c1	93.1 nM
Cc1ccc(O)cc1Nc1ccnc2cc(-c3ccc(CN4CCCCC4)o3)ccc12	166 nM
Cc1cc(NC(=O)[C@@H](Nc2ccc(C#N)c3ccccc23)C2CCCCC2)ccc1F	892 nM
O=C(NC1CCCCC1)N(Cc1cccc(-c2ccc(CNC3CCCC3)cc2)c1)C1CCN(Cc2ccccc2)CC1	951 nM
CCN(CC)CCN(Cc1ccc(-c2ccc(Cl)cc2)cc1)C(=O)Cn1c(CCc2cccc(F)c2F)nc(=O)c2ccccc21	769 nM
O=C(Nc1cccc(C(F)(F)F)c1)c1cccc(S(=O)(=O)NC2CCCN(CC3CCCCC3)C2)c1 (configuration not stated)	857 nM
Cc1cccnc1Nc1nc(-c2ccccn2)cs1	687 nM
O=C(Nc1c(F)cccc1F)c1cccc(-c2nn3ccccc3c2-c2ccnc(Nc3cccc(-c4cnco4)c3)n2)c1	361 nM
CC[C@H]1CN2CC[C@H]1C[C@H]2[C@H](O)c1cc(Cl)nc2ccc(OC)cc12	578 nM
NCc1ccc(CNCc2cccc(-c3cccc(-c4nc5ccccc5[nH]4)c3)c2)cc1	489 nM

SMILES	XC50
CCC(=O)Nc1nnc(Cc2ccc(OC)c(OC)c2)s1	910 nM
CCc1cn(C)c2c(N3CCCC3=O)cc(C(=O)N[C@@H](Cc3ccccc3)[C@H](O)CNC3CCCCC3)cc12	118 nM
O=C(/C=C/c1ccc(Cl)c(Cl)c1)NCCCCCCN1CCN(C(=O)Nc2cccc(Cl)c2)CC1	981 nM
O=C(Nc1ccc(Cl)cc1)c1cc(Cl)ccc1NC(=O)C1(c2ccc(Cl)cc2)CCCC1	1100 nM
CCCN(CCCCCCNCCc1ccc(Cl)cc1)CCc1ccc(O)c(O)c1	943 nM
CN(C)c1cc(NC(=O)Nc2ccc(SC(F)(F)F)cc2)c2ccccc2n1	140 nM
O=C(Nc1ccc(Oc2ccccc2)cc1)N1CCC(CCN2CCC(c3c[nH]c4ccccc34)CC2)CC1	795 nM
CCN(CC)CCCC(C)Nc1c(-c2ccc(Br)cc2)cnc2ccccc12 (configuration not stated)	703 nM
O=C(N[C@H]1CCN(Cc2ccc(OCCN3CCNCC3)c3ccccc23)C1)c1ccc(Cl)c(Cl)c1	748 nM
CCCCCCn1c(Sc2ccc(C#N)c([N+](=O)[O-])c2)nnc1-c1cccs1	706 nM
CC(=O)c1nccc(C)c1N	929 nM
CC(=O)N(C)c1cccc(C(=O)Nc2ccc(-c3cccc(-c4nc5cc(C(F)(F)F)ccc5[nH]4)c3)cc2)c1	724 nM
COc1ccc(CN(C)Cc2cc(C(C)C)c(C)cc2O)cc1F	654 nM
Cc1cc(=NN=Cc2ccccc2Cl)c2ccc(F)cc2[nH]1	257 nM
CC(C)C(=O)NC(Nc1ccc([N+](=O)[O-])cc1)C(Cl)(Cl)Cl (configuration not stated)	835 nM
CC(=O)Nc1ccc(C(=O)Nc2cccc(-c3csc(-c4nc5ccccc5[nH]4)c3)c2)cn1	119 nM
CNCCNc1nccc(N2CCc3ncnc(Nc4ccc(OCc5cccc(F)c5)c(Cl)c4)c3C2)n1	197 nM
Cc1oc(-c2ccc(Cl)cc2)cc1C(=O)NCCC1CCN(CCCCCNC(=O)/C=C/c2ccc(Cl)c(Cl)c2)CC1	446 nM
CN1CCN(c2nc(NCCc3ccc(O)cc3)nc(NCc3ccccc3-c3ccc(C(F)(F)F)cc3)n2)CC1	971 nM
O=C(Nc1ccc(C(F)(F)F)cc1)c1cccc(S(=O)(=O)NC2CCN(CC3CCCCC3)CC2)c1	848 nM
Cc1onc(-c2ccccc2)c1-c1nc(NCc2ccccc2Cl)no1	699 nM
Cc1cc(-c2cccc(CNCc3ccccc3)c2)ccc1S(=O)(=O)NCCN1CCCC1	732 nM
O=S(=O)(NC1CCN(c2ccnc3cc(Cl)ccc23)C1)c1ccc(F)cc1 (configuration not stated)	475 nM
CC(C)CNCc1ccc(-c2ccccc2CNC2CCN(Cc3ccccc3)CC2)cc1	565 nM
C(=C(c1cccs1)c1cccs1)c1ccc(CNC2CCN(Cc3ccccc3)CC2)cc1	161 nM

SMILES	XC50
Cc1ccccc1C1CCN(C2CCC(NC(=O)/C=C/c3ccc(Cl)cc3)CC2)CC1 (configuration not stated)	805 nM
O=C(NC1CCCC1)c1cc2c(=O)n3ccccc3nc2[nH]/c1=N/CCc1ccccc1	649 nM
N#Cc1cncc(-c2nc3c(N4CCC(Cc5ccccc5)CC4)cccc3n2CCNCc2ccccc2)c1	573 nM
COc1ccc2nccc([C@@H](O)CN3CCC(NCc4ccc5c(c4)OCCO5)CC3)c2c1	288 nM
COCC(=O)N(Cc1cccc(-c2ccc(CNCCc3ccccc3)cc2)c1)C1CCN(Cc2ccccc2)CC1	1100 nM
Cc1cc(C)c(C)c(S(=O)(=O)N2CCCCC(c3ccc(F)c(F)c3)=N2)c1C	706 nM
O=C(NCc1ccccc1)NC1CCN(c2ccnc3cc(Cl)ccc23)C1 (configuration not stated)	158 nM
O=C(Nc1ccc(Cl)c(C(F)(F)F)c1)c1ccc(Cl)c([N+](=O)[O-])c1	1120 nM
CCCC1N=C(N)N=C(N)N1c1ccc(C)c(C)c1 (configuration not stated)	73.6 nM
O=C(c1ccccc1)C1CC1CN1CC=C(c2c[nH]c3ccccc23)CC1 (configuration not stated)	525 nM
COCCCNC(=N)c1ccc(NC(=O)c2ccc(C(=O)Nc3ccc(C(=N)NCCCOC)cc3)cc2)cc1	45 nM
O=C(/C=C/c1ccc(C(F)(F)F)cc1)NCCCCCN1CCN(C(=O)Nc2ccc(Cl)c(Cl)c2)CC1	867 nM
O=C(/C=C/c1ccc(Cl)c(Cl)c1)N1CCC(CN2CCC(c3c[nH]c4ncccc34)CC2)CC1	1090 nM
CCC(C)c1ccc(NC(=O)Nc2ccnc3ccccc23)cc1 (configuration not stated)	625 nM
COc1cccc(NC(=O)c2cc(C(=O)Nc3cccc(OC)c3)cc([N+](=O)[O-])c2)c1	661 nM
CCN(CC)S(=O)(=O)c1ccc(C(C)NC(=O)c2ccccc2COc2ccccc2)cc1 (configuration not stated)	330 nM
Cc1cccc2nc(-c3cccc(-c4cccc(NC(=O)c5ccncc5)c4)c3)[nH]c12	236 nM
O=c1c(Br)ccccc1Br	795 nM
CS(=O)(=O)Cc1cccc(Nc2ncc(Cl)c(Nc3cccnc3C(N)=O)n2)c1	168 nM
CN(C)Cc1ccc(-c2cc3c(-c4ccc(CN(C)C)cc4)ccnc3[nH]2)cc1	887 nM
O=C(NC1CCCCC1)c1csc(C2CCCN(C(=O)c3ccc(O)c(-c4cccc(C(F)(F)F)c4)c3)C2)n1 (configuration not stated)	1670 nM
CCOc1ncccc1CN1CCC(N2CCc3cc(NC(=O)c4cc(C)on4)ccc32)C1 (configuration not stated)	312 nM
